Measured values: ChEMBL document CHEMBL2074256, “HIV protease inhibitors are inhibitors but not substrates of the human breast cancer resistance protein (BCRP/ABCG2)” (J Pharmacol Exp Ther, 2004)

Target: T1, Broad substrate specificity ATP-binding cassette transporter ABCG2 (Homo sapiens, UniProt Q9UNQ0)
T1 sequence (Q9UNQ0 whole entry): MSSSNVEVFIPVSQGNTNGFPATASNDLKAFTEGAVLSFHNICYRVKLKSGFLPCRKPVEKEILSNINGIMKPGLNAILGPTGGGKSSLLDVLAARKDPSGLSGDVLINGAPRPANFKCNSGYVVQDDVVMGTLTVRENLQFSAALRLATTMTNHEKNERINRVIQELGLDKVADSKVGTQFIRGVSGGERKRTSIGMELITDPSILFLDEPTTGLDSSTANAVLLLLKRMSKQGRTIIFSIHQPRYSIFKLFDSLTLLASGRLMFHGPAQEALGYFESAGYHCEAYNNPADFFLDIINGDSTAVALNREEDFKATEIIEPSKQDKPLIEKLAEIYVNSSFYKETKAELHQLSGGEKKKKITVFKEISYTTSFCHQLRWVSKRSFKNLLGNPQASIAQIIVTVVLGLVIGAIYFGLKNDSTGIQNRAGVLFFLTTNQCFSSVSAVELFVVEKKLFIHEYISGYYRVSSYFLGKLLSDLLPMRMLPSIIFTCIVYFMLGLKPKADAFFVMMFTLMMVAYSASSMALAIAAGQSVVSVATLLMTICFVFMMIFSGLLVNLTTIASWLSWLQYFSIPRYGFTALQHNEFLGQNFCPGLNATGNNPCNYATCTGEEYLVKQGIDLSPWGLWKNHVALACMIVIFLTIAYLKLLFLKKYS
Test: TP_TRANSPORTER: increase in mitoxantrone intracellular accumulation in BCRP-expressing HEK cells
Format: functional, cell-based, HEK293

For CC(C)(C)NC(=O)[C@@H]1C[C@@H]2CCCC[C@@H]2CN1C[C@@H](O)[C@H](Cc1ccccc1)NC(=O)[C@H](CC(N)=O)NC(=O)c1ccc2ccccc2n1, the IC50 was 19.5 µM.
Molecule Cc1c(O)cccc1C(=O)N[C@@H](CSc1ccccc1)[C@H](O)CN1C[C@H]2CCCC[C@H]2C[C@H]1C(=O)NC(C)(C)C has an IC50 of 12.5 µM.
